Data set [1] in a line: Log P (octanol-water partition coefficient) of flexibilizer agents.

Counter-ions that a name gives are not always drawn. Like-named read-outs stand apart in the source and are kept apart here.

As usually defined, the logP is a log measure of how a compound divides between an organic and an aqueous phase. Low values mean lower lipophilicity, high ones higher lipophilicity. Take `COC(=O)c1ccc(O)cc1` [FA9, Methyl-4-hydroxybenzoate sodium salt, reference compound]: the logP in the data set “physchem” is -1.34.
Compound `OCCCCCCO` [FA5, 1,6-hexanediol] registered a logP in “physchem” (octanol/water) of 0.76.
Usually Log P stands for the decadic logarithm of the partition coefficient of the neutral form, usually between octanol and water. A high value points to higher lipophilicity. As for 2,3-dimethylpropanediol [FA2], in data set [1], the log partition coefficient (Log P) came out at 0.13.
As to `CCCCC(CC)CO` (stereo not shown) [FA7, 2-ethyl-1-hexanol], the logP in the data set “physchem” (octanol/water) is 2.73.
With `CCCCC(O)CO` (stereo not shown) [FA4, 1,2-hexanediol], the log partition coefficient (logP) in “physchem” (octanol/water) was 0.69.
For `OCCOCCO` [FA10, 2,2′-oxydiethanol, reference compound], in “physchem”, the logP is -1.47.
Same read-out and setting: under `CC(O)CCO` (stereo not shown) [FA1, 1,3-butanediol] stands -0.29.
Regarding `OCCCCCO` [FA3, 1,5-pentanediol], in “physchem” (octanol/water), the logP was 0.27.
On to `OCCOc1ccccc1` [FA6, 2-phenoxyethanol], for which the log partition coefficient (logP) in the data set “physchem” was 1.1.
On the same count and under the same terms, the same measure for `OCCO` [FA8, Ethylene glycol, reference compound]: -1.2.

The values are drawn from patent US6645690B2, “Photographic member with flexibilizer material” (Eastman Kodak Company, priority 2001, dated 2003).
